Source: ChEMBL document CHEMBL4339236, “Colletopeptides A-D, Anti-inflammatory Cyclic Tridepsipeptides from the Plant Endophytic Fungus Colletotrichum sp. S8” (J Nat Prod, 2019)
Calls of active or inactive are those of the source. The rule behind the calls is not given here.

How the values were obtained:
HCT-116 = assay: Cytotoxicity against human HCT116 cells measured after 48 hrs by MTS assay; assay type: cell-based; details: hct-116, 48 h
Staphylococcus aureus = assay: Antibacterial activity against Staphylococcus aureus measured after 24 hrs by broth microdilution assay; assay type: functional, organism-based
[1] = target: T1, NF-kappa-B inhibitor alpha (Mus musculus) (UniProt Q9Z1E3); assay: Inhibition of IkappaBalpha phosphorylation in LPS-stimulated mouse RAW264.7 cells at 20 to 40 uM preincubated for 12 hrs followed by LPS stimulation and measured after 24 hrs by Western blot analysis; assay type: cell-based
T1 sequence (whole entry): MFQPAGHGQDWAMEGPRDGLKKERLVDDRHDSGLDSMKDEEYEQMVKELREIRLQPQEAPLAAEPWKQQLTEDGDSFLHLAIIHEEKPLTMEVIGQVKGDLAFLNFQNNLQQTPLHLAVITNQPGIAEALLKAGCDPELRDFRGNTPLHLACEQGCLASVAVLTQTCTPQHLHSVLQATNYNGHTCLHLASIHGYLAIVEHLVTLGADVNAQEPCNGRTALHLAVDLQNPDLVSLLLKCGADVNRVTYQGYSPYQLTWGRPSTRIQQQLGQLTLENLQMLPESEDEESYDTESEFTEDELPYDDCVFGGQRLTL

MDA-MB-231 = assay: Cytotoxicity against human MDA-MB-231 cells measured after 48 hrs by MTS assay; assay type: cell-based; details: mda-mb-231, 48 h
HepG2 [2] = assay: Lipid lowering activity in human HepG2 cells assessed as reduction in oleic acid-induced lipid accumulation after 24 hrs by oil red O staining based spectrophotometric method; assay type: functional, cell-based
Escherichia coli = assay: Antibacterial activity against Colon bacillus measured after 24 hrs by broth microdilution assay; assay type: functional, organism-based
[3] = target: Histone deacetylase (Homo sapiens) (UniProt Q13547+O15379+Q9UBN7+Q92769+Q9UQL6+Q8WUI4+Q9BY41+Q96DB2+P56524+Q9UKV0+Q969S8); assay: Inhibition of HDAC in human HeLa nuclear extracts using Boc-Lys(Ac)-AMC as substrate by fluorescence assay; assay type: cell-free
[4] = target: Transcription factor p65 (Mus musculus) (UniProt Q04207); assay: Inhibition of NFkappaB p65 phosphorylation in LPS-stimulated mouse RAW264.7 cells at 20 to 40 uM preincubated for 12 hrs followed by LPS stimulation and measured after 24 hrs by Western blot analysis; assay type: cell-based
A549 = assay: Cytotoxicity against human A549 cells measured after 48 hrs by MTS assay; assay type: cell-based; details: a549, 48 h
RAW264.7 [5] = assay: Antiinflammatory activity in mouse RAW264.7 cells assessed as inhibition of LPS-induced nitric oxide production preincubated for 12 hrs followed by LPS-stimulation and measured after 24 hrs by Griess assay; assay type: functional, cell-based
HeLa = assay: Cytotoxicity against human HeLa cells measured after 48 hrs by MTS assay; assay type: cell-based
HepG2 [6] = assay: Cytotoxicity against human HepG2 cells measured after 48 hrs by MTS assay; assay type: cell-based; details: hepg2, 48 h
Bacillus subtilis = assay: Antibacterial activity against Bacillus subtilis measured after 24 hrs by broth microdilution assay; assay type: functional, organism-based
Aeromonas hydrophila = assay: Antibacterial activity against Aeromonas hydrophila measured after 24 hrs by broth microdilution assay; assay type: functional, organism-based
RAW264.7 [7] = assay: Antiinflammatory activity in mouse RAW264.7 cells assessed as inhibition of LPS-induced IL-6 production preincubated for 12 hrs followed by LPS-stimulation and measured after 24 hrs by ELISA; assay type: functional, cell-based
RAW264.7 [8] = assay: Antiinflammatory activity in mouse RAW264.7 cells assessed as inhibition of LPS-induced TNFalpha production preincubated for 12 hrs followed by LPS-stimulation and measured after 24 hrs by ELISA; assay type: functional, cell-based

Transcription factor p65 (Mus musculus), sequence (Q04207 whole entry): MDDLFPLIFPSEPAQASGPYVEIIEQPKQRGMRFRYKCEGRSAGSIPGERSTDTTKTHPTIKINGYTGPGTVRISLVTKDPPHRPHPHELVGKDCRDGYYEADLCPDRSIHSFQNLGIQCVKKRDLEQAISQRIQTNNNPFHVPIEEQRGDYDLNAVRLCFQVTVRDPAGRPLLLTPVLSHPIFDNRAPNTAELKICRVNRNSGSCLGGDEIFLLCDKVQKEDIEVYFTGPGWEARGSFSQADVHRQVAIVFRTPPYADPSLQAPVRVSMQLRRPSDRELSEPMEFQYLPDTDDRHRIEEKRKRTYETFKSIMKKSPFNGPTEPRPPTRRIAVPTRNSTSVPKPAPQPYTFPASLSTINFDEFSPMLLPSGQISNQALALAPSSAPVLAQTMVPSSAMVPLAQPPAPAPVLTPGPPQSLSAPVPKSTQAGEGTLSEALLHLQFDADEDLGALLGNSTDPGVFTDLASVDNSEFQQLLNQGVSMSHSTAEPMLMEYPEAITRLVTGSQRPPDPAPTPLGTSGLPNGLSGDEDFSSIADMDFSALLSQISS

Row | Structure (SMILES) | inhibition [1] | inhibition [3] | inhibition [4] | IC50 (RAW264.7 [5]) [µM] | Activity (HCT-116) | Activity (Staphylococcus aureus) | Activity (MDA-MB-231) | Activity (HepG2 [2]) | Activity (Escherichia coli) | Activity (A549) | Activity (HeLa) | Activity (HepG2 [6]) | Activity (Bacillus subtilis) | Activity (Aeromonas hydrophila) | inhibition (RAW264.7 [7]) | inhibition (RAW264.7 [8])
1 | CC(C)[C@H]1C(=O)O[C@H]([C@@H](C)CCCC[C@@H](C)O)C[C@@H](O)[C@@H](C)C(=O)N[C@H](Cc2ccccc2)C(=O)N1C | Active | inactive | Active | 13.5 | Non-Toxic | inactive | Non-Toxic | Active | inactive | Non-Toxic | Non-Toxic | Non-Toxic | inactive | inactive | – | –
2 | C[C@@H]1C[C@H]2[C@@H]3CCC4=CC(=O)C=C[C@]4(C)[C@@]3(F)[C@@H](O)C[C@]2(C)[C@@]1(O)C(=O)CO [DEXAMETHASONE] | – | – | – | 18.4 | – | – | – | – | – | – | – | – | – | – | – | –
3 | CC(C)C[C@H]1C(=O)O[C@H]([C@@H](C)CCCC[C@@H](C)O)C[C@@H](O)[C@@H](C)C(=O)N[C@H](Cc2ccccc2)C(=O)N1C | – | inactive | – | 38.7 | Non-Toxic | inactive | Non-Toxic | Active | inactive | Non-Toxic | Non-Toxic | Non-Toxic | inactive | inactive | – | –

The remaining molecules from weak to strong by IC50 (RAW264.7 [5]), led by results:

Row | inhibition [1] | inhibition [3] | inhibition [4] | IC50 (RAW264.7 [5]) [µM] | Structure (SMILES) | Activity (HCT-116) | Activity (Staphylococcus aureus) | Activity (MDA-MB-231) | Activity (HepG2 [2]) | Activity (Escherichia coli) | Activity (A549) | Activity (HeLa) | Activity (HepG2 [6]) | Activity (Bacillus subtilis) | Activity (Aeromonas hydrophila) | inhibition (RAW264.7 [7]) | inhibition (RAW264.7 [8])
4 | – | inactive | – | 22.2 | CC[C@H](C)[C@H]1C(=O)O[C@@H](CCCCC[C@@H](C)O)C[C@@H](O)[C@@H](C)C(=O)N[C@H](Cc2ccccc2)C(=O)N1C | Non-Toxic | inactive | Non-Toxic | Active | inactive | Non-Toxic | Non-Toxic | Non-Toxic | inactive | inactive | – | –
5 | Active | inactive | Active | 8.3 | CC[C@H](C)[C@H]1C(=O)O[C@H]([C@@H](C)CCCC[C@@H](C)O)C[C@@H](O)[C@@H](C)C(=O)N[C@H](Cc2ccccc2)C(=O)N1C | Non-Toxic | inactive | Non-Toxic | Active | inactive | Non-Toxic | Non-Toxic | Non-Toxic | inactive | inactive | Dose-dependent effect | Dose-dependent effect
